# Data: patent publication US20040137592A1, “Novel SMG-1” (Japan Science and Technology Agency, priority 2001, published 2004)
# Like-named read-outs stand apart in the source and are kept apart here.
# Key:
# [1] = test system: BGG-39PTC mRNA in MEF-Tet OFF cells; test: BGG reporter mRNA accumulation (NMD) in MEF-Tet OFF cells, Northern blotting; format: cell-based; conditions: 4.5 hours, 50 ng/ml doxycycline, FIG. 29
# Experimental: More particularly, MEF-Tet OFF cells were transfected with the reporter plasmid BGG-WT or the reporter plasmid BGG-39 PTC, and re-inoculated in eight dishes. The cells were then treated for 4.5 hours in the presence of 50 ng/ml doxycycline by various concentrations of caffeine (caff.), wortmannin (wort.), rapamycin (rap.), or cyclohexamide (CHX) shown in FIG. 29.
# The Total RNA was analyzed by Northern blotting using the BGG probe. In FIG. 29, “BG WT” means the results in the case of use of the reporter plasmid BGG-WT, “BG PTC” means the results in the case of use of the reporter plasmid BGG-39PTC, and “GAPDH” means the results in the case of use of the cDNA of glyceryl aldehyde-3-phosphate dehydrogenase as a probe. Further, “cont.”, “caff.”, “wort.”, “rap.”, and “CHX” show the results of the control (that is, in the absence of wortmannin, caffeine, rapamycin, and cyclohexamide), the results in the presence of caffeine, the results in the presence of wortmannin, the results in the presence of rapamycin, and the results in the presence of cyclohexamide, respectively.
# 6H-hSMG-1 = molecular target: T1, 6H-hSMG-1 (Homo sapiens, UniProt Q96Q15); test: in vitro kinase assay of 6H-hSMG-1 with hUpf1/SMG-2 fusion protein (S1096) as substrate; format: biochemical; conditions: substrate hUpf1/SMG-2 fusion protein (S1096), read-out: IC50, inhibition of the kinase activity of 6H-hSMG-1
# T1 construct: made in house; host or cells: 293T cells transfected with SR6H-hSMG-1; immunoprecipitated with anti-polyhistidine antibody
# Experimental: The immunoprecipitates obtained in the Example 6(1) were washed with a lysis buffer F containing 0.25 mol/L LiCl, and then washed two times with a 1×kinase reaction buffer [10 mmol/L HEPES-KOH (pH7.5), 50 mmol/L β-glycerophosphoric acid, 50 mmol/L NaCl, 1 mmol/L dithiothreitol (DTT), and 10 mmol/L MnCl2].
# To each of the washed immunoprecipitates, 25 μL of 2×kinase reaction buffer (that is, two-fold concentrations of the above kinase reaction buffer) was added. The phosphorylation reaction was started by adding 10 mmol/L ATP and 370 kBq [γ-^32P] ATP (6000 Ci/mmol; Amersham Pharmacia Biotech) in equal amounts (25 μL) and continued, with occasional stirring, at 30° C. for 30 minutes. The final reaction amount was maintained at 50 μL, then 25 μL of a 4×SDS sample buffer was added to stop the reaction. SDS-PAGE was performed at gel concentrations of 5.5% and 12.5%, and then autoradiography was carried out to detect the phosphorylated proteins. The phosphorylation strength of each protein was measured by an Image Analyzer BAS2000 (Fuji Film).
# More particularly, 6H-hSMG-1 was prepared in accordance with the procedure described in Example 7(3). In the presence of various concentrations of wortmannin or caffeine shown in FIG. 26 and FIG. 27, the hUpf1/SMG-2 fusion protein (S1096) prepared in Example 9(3) was used as the substrate, to perform an in vitro kinase assay. […]
# [2] = test system: hUpf1/SMG-2 phosphorylation in HeLa cells; format: cell-based, human; conditions: 30 min pretreatment, then 4.5 hours with 50 nmol/L okadaic acid, FIG. 28
# Experimental: HeLa cells were pretreated for 30 minutes in the presence or absence of various concentrations of wortmannin, caffeine, or rapamycin shown in FIG. 28. Next, the cells were treated for 4.5 hours in the presence of wortmannin, caffeine, or rapamycin and in the presence or absence of 50 nmol/L okadaic acid. Cell lysates were prepared and analyzed by Western blotting using the anti-Upf1/SMG-2 antibody.
# Further, “hUPF1-P” means phosphorylated hUpf1/SMG-2, while “hUPF1” means unphosphorylated hUpf1/SMG-2.
# [3] = test system: hUpf1/SMG-2 in HeLa cells; test: mobility shift of hUpf1/SMG-2 in HeLa cells treated with okadaic acid, Western blotting; format: cell-based, human; conditions: various concentrations, 4.5 hours, FIG. 23
# Experimental: The HeLa cells were treated with various concentrations of okadaic acid (OA; Calbiochem) for 4.5 hours, and then were recovered and dissolved in the 1×SDS sample buffer. After 6% SDS-PAGE was performed, Western blotting using an anti-hUpf1/SMG-2 antibody was performed to determine the mobility shift of hUpf1/SMG-2.
# T1 sequence (Q96Q15 111-3661): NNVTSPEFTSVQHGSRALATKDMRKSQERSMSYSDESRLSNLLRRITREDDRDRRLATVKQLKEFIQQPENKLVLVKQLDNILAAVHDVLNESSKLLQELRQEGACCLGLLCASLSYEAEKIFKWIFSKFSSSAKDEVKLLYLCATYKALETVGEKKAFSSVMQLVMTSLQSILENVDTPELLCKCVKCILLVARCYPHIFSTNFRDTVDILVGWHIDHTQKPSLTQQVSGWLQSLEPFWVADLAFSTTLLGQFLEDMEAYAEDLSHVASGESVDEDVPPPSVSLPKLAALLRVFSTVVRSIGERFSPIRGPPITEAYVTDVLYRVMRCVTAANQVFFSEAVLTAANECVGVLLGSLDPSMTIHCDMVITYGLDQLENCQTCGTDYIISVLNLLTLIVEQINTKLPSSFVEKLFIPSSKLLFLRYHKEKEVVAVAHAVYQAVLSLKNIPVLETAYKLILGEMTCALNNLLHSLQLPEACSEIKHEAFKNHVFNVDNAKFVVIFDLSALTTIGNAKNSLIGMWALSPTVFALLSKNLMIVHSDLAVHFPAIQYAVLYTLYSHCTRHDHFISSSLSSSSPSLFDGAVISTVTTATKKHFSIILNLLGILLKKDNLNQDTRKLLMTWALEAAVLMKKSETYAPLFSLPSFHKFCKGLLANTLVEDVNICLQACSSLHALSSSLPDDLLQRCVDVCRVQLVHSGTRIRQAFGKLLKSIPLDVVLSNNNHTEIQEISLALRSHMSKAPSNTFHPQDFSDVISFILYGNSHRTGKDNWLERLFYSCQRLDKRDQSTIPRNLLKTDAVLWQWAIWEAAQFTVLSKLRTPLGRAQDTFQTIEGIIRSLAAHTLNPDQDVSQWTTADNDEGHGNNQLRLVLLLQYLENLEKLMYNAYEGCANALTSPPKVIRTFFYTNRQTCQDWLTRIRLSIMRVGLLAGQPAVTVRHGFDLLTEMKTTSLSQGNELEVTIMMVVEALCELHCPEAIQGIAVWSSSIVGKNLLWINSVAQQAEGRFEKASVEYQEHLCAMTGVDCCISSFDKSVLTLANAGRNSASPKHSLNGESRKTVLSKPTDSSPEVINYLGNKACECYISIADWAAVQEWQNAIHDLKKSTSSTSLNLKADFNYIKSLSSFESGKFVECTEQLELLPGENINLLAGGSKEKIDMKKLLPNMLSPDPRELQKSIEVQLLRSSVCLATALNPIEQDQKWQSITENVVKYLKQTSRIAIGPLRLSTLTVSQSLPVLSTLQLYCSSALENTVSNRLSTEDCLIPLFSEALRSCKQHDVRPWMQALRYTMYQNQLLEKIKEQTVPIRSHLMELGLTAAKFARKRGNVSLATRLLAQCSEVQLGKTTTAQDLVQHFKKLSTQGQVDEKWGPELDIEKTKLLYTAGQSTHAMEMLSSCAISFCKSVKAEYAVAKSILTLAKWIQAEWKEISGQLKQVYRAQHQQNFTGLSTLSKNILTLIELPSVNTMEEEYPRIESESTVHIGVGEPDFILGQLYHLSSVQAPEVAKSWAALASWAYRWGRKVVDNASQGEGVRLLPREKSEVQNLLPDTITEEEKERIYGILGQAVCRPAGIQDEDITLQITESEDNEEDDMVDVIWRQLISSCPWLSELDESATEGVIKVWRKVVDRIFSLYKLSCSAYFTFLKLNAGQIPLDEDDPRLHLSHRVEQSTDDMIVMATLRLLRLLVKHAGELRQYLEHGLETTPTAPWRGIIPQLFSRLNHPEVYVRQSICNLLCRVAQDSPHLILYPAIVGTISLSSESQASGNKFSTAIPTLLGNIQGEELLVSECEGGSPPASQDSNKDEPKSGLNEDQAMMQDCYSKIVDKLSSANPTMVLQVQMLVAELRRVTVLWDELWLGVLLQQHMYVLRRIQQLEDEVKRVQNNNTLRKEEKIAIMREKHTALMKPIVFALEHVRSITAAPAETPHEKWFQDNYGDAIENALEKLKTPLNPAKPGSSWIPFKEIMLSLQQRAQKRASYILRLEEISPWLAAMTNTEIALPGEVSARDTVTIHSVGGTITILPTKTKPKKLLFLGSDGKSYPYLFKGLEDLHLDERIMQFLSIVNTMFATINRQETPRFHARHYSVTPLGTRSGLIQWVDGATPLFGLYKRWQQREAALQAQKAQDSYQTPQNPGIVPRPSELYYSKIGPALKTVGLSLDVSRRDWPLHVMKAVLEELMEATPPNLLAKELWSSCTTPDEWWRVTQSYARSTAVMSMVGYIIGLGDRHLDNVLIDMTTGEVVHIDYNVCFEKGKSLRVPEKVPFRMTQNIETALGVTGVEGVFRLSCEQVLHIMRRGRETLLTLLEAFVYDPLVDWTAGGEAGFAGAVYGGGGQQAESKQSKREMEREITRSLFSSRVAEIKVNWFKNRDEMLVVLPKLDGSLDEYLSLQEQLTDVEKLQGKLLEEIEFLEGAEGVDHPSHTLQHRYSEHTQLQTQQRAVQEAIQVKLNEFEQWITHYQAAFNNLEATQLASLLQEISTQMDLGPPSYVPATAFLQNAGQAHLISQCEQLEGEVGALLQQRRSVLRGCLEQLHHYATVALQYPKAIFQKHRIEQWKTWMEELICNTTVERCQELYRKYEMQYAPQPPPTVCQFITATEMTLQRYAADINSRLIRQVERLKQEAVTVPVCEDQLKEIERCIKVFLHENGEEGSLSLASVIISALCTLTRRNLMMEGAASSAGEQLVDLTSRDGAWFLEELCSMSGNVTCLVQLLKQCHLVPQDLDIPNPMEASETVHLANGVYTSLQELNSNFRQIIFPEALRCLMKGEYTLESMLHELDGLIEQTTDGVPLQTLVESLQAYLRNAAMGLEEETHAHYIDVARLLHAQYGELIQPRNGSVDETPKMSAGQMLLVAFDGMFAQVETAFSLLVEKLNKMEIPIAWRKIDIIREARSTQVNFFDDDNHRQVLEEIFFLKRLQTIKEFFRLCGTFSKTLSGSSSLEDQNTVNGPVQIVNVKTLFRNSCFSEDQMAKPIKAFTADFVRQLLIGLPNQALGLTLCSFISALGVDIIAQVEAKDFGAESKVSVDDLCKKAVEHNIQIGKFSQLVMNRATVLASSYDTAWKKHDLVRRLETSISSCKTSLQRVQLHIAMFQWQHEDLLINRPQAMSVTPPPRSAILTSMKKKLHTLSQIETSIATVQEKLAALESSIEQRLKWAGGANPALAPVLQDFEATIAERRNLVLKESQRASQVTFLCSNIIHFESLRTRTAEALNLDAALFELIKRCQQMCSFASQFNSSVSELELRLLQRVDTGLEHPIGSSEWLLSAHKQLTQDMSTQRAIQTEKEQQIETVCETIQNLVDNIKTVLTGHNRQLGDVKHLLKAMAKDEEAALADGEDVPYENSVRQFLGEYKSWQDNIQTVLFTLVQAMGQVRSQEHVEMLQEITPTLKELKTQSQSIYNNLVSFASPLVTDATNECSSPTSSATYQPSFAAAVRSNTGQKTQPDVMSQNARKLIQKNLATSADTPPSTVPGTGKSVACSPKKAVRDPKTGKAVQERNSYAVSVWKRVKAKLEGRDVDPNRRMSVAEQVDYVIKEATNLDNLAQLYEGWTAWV
structure (smiles),measurement,setting,value
"C[C@@H]1C[C@@H]([C@H](O)CC2CC(=O)NC(=O)C2)C(=O)[C@@H](C)C1 [CHX, cyclohexamide]",inhibition of NMD,[1],inhibited NMD
Cn1c(=O)c2c(ncn2C)n(C)c1=O [caffeine],IC50,6H-hSMG-1; FIG. 27,~300 µM
same,inhibition of the upward shift of hUpf1/SMG-2,[2],inhibited the upward shift
same,accumulation of BGG 39PTC mRNA,[1],resulted in the accumulation of BGG 39PTC
C=C1[C@@H](O)[C@@H]2O[C@]3(CC[C@H](/C=C/[C@@H](C)[C@@H]4CC(C)=C[C@@]5(O[C@H](C[C@@](C)(O)C(=O)O)CC[C@H]5O)O4)O3)CC[C@H]2O[C@@H]1[C@@H](O)C[C@H](C)[C@H]1O[C@@]2(CCCCO2)CC[C@H]1C [okadaic acid],upwardly shifted (phosphorylated) band of hUpf1/SMG-2,[3],upwardly shifted band of hUpf1/SMG-2 appears
COC[C@H]1OC(=O)c2coc3c2[C@@]1(C)C1=C(C3=O)[C@@H]2CCC(=O)[C@@]2(C)C[C@H]1OC(C)=O [wortmannin],IC50,6H-hSMG-1; FIG. 26,~0.06 µM
